# Results taken from patent publication US9212130B2, “Heterocyclic derivative and pharmaceutical composition comprising the same” (SHIONOGI & CO., LTD., priority 2010, dated 2015).
# Target: human P2X3 receptor (Homo sapiens (Human), UniProt P56373)
# Assay: Evaluation of human P2X3 receptor inhibitory activity (ATP-induced Fluo-3 fluorescence, FDSS 3000)
# Type: cell-based
# Conditions: C6BU-1 cell transfected with human P2X3 receptor gene
# Description: The plate was placed in High-Throughput Screening System FDSS 3000 (Hamamatsu Photonics K.K.). […] Five minutes after, 50 nM ATP solution (50 μL) prepared by dilution with the dilution buffer was dispensed through the built-in automatic dispenser, and the measurement of fluorescence intensity was continued for 3 min. For each well, the specific maximum fluorescence intensity was calculated as the ratio of the maximum fluorescence intensity after addition of the ATP solution to the fluorescence intensity at the starting of the measurement. […] FDSS software (Hamamatsu Photonics K.K.) was used for calculation of the specific maximum fluorescence intensity. IC50 was calculated using Microsoft Excel (Microsoft. Corporation) and XLfit (idbs Ltd.)
# The aforementioned in mM, μM and nM are each means mmol/L, μmol/L and nmol/L, respectively.
# In tables, μM means μmol/L.
# Sequence of human P2X3 receptor (P56373 whole entry): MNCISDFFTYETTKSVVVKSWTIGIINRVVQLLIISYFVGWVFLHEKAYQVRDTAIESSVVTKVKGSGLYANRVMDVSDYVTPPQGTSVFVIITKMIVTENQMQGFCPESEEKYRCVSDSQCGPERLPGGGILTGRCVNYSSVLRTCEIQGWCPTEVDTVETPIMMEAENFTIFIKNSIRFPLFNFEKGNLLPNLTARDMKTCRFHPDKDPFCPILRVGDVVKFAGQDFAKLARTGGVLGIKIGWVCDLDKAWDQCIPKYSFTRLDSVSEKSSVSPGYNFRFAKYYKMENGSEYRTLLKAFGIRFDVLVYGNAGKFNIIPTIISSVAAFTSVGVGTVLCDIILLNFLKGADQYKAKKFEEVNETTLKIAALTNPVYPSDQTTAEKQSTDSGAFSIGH
row,Compound,IC50 [nM]
1,CCOC(=O)CCC1=CN(Cc2ccc(Cl)cc2)C(Nc2ccc(OC(C)C)c(Cl)c2)=NC1O (centres unmarked) [I-115],51
2,"CCNc1ccc(Nc2ccc(OC(C)C)cc2)c(Cc2ccc(Cl)cc2)c1 [I-071, 1-(4-chlorobenzyl)-3-ethylamino-6-(4-isopropoxyphenylamino)benzene]",502
3,COC(=O)[C@H](C)NC(=O)c1cnc(Nc2ccc(OC(C)C)c(F)c2)n(Cc2ccc(Cl)cc2)c1=O [I-164],18
4,CC(C)Oc1ccc(Nc2ncc(C(=O)NC(CO)CO)c(=O)n2Cc2ccc(Cl)cc2)cc1F [I-153],59
5,CC(C)Oc1ccc(Nc2ncc(C(N)=O)c(=O)n2Cc2ccc(Cl)cc2)cc1F [I-258],47
6,CC(C)Oc1ccc(Nc2ccc(Cc3nc(N(C)C)oc(=O)c3Cl)cc2)cc1F [I-063],688
7,CC(C)Oc1ccc(Nc2ncc(C(=O)NCCO)c(=O)n2Cc2ccc(Cl)cc2)cc1F [I-152],96
8,CC(C)Oc1ccc(Nc2ncc(NC(=O)C(=O)O)c(=O)n2Cc2ccc(Cl)cc2)cc1F [I-254],20
9,CCn1c(=O)cc(Nc2ccc(Oc3cncc(C(=O)OC)c3)cc2)n(Cc2ccc(Cl)cc2)c1=O [I-314],35
10,COC(=O)[C@@H](C)NC(=O)c1cnc(Nc2ccc(OC(C)C)c(F)c2)n(Cc2ccc(Cl)cc2)c1=O [I-197],98
11,CCOC(=O)c1cn(Cc2ccccc2)c(Nc2ccc(OC(C)C)c(Cl)c2)cc1=O [I-049],796
12,Cc1nc2ccc(Nc3nc(=O)c(C(=O)NC4CC4)cn3Cc3ccc(Cl)cc3)cc2s1 [I-309],61
13,COC(=O)[C@@H](C)Cn1c(=O)cc(Nc2ccc(OC(C)C)c(C)c2)n(Cc2ccc(Cl)cc2)c1=O [I-212],37
14,CC(C)Oc1ccc(Nc2ncc(NC(=O)C3CCOCC3)c(=O)n2Cc2ccc(Cl)cc2)cc1Cl [I-236],6
15,COCCC(=O)Nc1cnc(Nc2ccc(OC(C)C)c(F)c2)n(Cc2ccc(Cl)cc2)c1=O [I-248],24
16,CC(C)Oc1ccc(Nc2nc(=O)c(N3CCOCC3)cn2Cc2ccc(Cl)cc2)cc1F [I-209],397
17,CC(C)Oc1ccc(Nc2cc(=O)n(C[C@H](C)C(=O)O)c(=O)n2Cc2ccc(Cl)cc2)nc1 [I-217],453
18,CC(C)Oc1ccc(Nc2nc(=O)c(NC(=O)C3CCOCC3)cn2Cc2ccc(Cl)cc2)cc1F [I-238],653
19,CC(C)Oc1ccc(Nc2ncc(NC(=O)OC(C)(C)C)c(=O)n2Cc2ccc(Cl)cc2)cc1F [I-158],20
20,CC(C)Oc1ccc(Nc2cc(=O)n(C[C@H](C)C(=O)O)c(=O)n2Cc2ccc(Cl)cc2)cc1 [I-218],55
21,CCNC(=O)Nc1cnc(Nc2ccc(OC(C)C)c(F)c2)n(Cc2ccc(Cl)cc2)c1=O [I-250],7
22,CC(C)Oc1ccc(Nc2ncc(Cc3ccccc3)c(=O)n2Cc2ccc(Cl)cc2)cc1Cl [I-022],147
23,"CC(C)Oc1ccc(Nc2ncc(/C=C/C(=O)O)c(=O)n2Cc2ccc(Cl)cc2)cc1Cl [I-139, 2-(3-chloro-4-isopropoxyphenylamino)-3-(4-chlorobenzyl)-5-(2-hydroxycarbonylethenyl) pyrimidine-4(3H)-one]",331

row,Compound,IC50 [nM]
1,"CC(C)Oc1ccc(Nc2nc(=O)c3cc(C(F)(F)F)ccc3n2Cc2ccc(Cl)cc2)cc1Cl [I-227, 1-(4-chlorobenzyl)-2-(3-chloro-4-isopropoxyphenylamine)-6-trifluoromethylquinazoline-4(3H)-one]",974
2,CC(C)NC(=O)c1c(O)[nH]/c(=N\c2ccc(OC(C)C)cc2)n(Cc2ccc(Cl)cc2)c1=O [I-332],504
3,C=Cc1c(C)nc(Nc2ccc3nc(C)sc3c2)n(Cc2ccc(Cl)cc2)c1=O [I-350],385
4,CC(=O)N1CCC(C(=O)Nc2cnc(Nc3ccc(OC(C)C)c(F)c3)n(Cc3ccc(Cl)cc3)c2=O)CC1 [I-270],10
5,Cc1cc(Nc2ncc(NC(=O)C3CCOCC3)c(=O)n2Cc2ccc(Cl)cc2)ccc1OC(C)C [I-237],13
6,CC(C)Oc1ccc(Nc2ncc(NC(=O)C(C)(C)O)c(=O)n2Cc2ccc(Cl)cc2)cc1F [I-268],4
7,COC(=O)CCCn1c(=O)cc(Nc2ccc(OC(C)C)c(Cl)c2)n(Cc2ccc(Cl)cc2)c1=O [I-103],14
8,CC(C)Oc1ccc(Nc2ncc(C(=O)NC3CCOCC3)c(=O)n2Cc2ccc(Cl)cc2)cc1F [I-242],67
9,CCC1(CC)C(=O)N/C(=N\c2ccc(OC(C)C)cc2)N(Cc2ccc(Cl)cc2)C1=O [I-327],867
10,O=C(Nc1cnc(Nc2ccc(Oc3cc[nH]c(=O)c3)cc2)n(Cc2ccc(Cl)cc2)c1=O)C1CCOCC1 [I-244],2
11,"CC(=O)Nc1c(O)[nH]/c(=N\c2ccc(OC(C)C)cc2)n(Cc2ccc(Cl)cc2)c1=O [I-339, 1-(4-chlorobenzyl)-3-acetylamino-4-hydroxy-6-(4-isopropoxyphenylimino)-2,3-dihydro-pryimidine-4-one]",518
12,"CCOC(=O)c1cn(Cc2ccc(Cl)cc2)c2cc(Nc3ccccc3)ccc2c1=O [I-148, 1-(4-chlorobenzyl)-7-(phenylamino)-3-(ethoxycarbonyl)quinoline-4(1H)-one]",324
13,CC(=O)Nc1cnc(Nc2ccc(OC(C)C)c(F)c2)n(Cc2ccc(Cl)cc2)c1=O [I-246],106
14,Cc1ccc(Oc2ccc(Nc3ncc(N)c(=O)n3Cc3ccc(Cl)cc3)cc2)cn1 [I-292],433
15,COC(=O)c1cncc(Oc2ccc(Nc3ncc(NC(=O)C4CCOCC4)c(=O)n3Cc3ccc(Cl)cc3)cc2)c1 [I-304],2
16,CCOC(=O)c1c(O)[nH]/c(=N\c2ccc(OC(C)C)cc2)n(Cc2ccc(Cl)cc2)c1=O [I-334],188
17,"CC(C)Oc1ccc(Nc2nc(=O)c(Cc3ccccc3)cn2Cc2ccc(Cl)cc2)cc1Cl [I-023, 5-benzyl-1-(4-chlorobenzyl)-2-(3-chloro-4-isopropoxyphenylamino)pyrimidine-4(1H)-one]",148
18,"CC(C)Oc1ccc(Nc2cc(=O)n(Cc3ccccc3)cc2Cc2ccc(Cl)cc2)cc1Cl [I-067, 4-(3-chloro-4-isopropoxyphenylamino)-1-benzyl-5-(4-chlorobenzyl)pyridine-2(1H)-one]",310
19,Cc1nc2ccc(Nc3ncc(NC(=O)C4CCOCC4)c(=O)n3Cc3ccc(Cl)cc3)cc2s1 [I-264],4
20,CC(C)Oc1ccc(Nc2ncc(Br)c(=O)n2Cc2ccc(Cl)cc2)cc1F [I-257],319
21,CC(C)Oc1ccc(Nc2ncc(CCC(=O)O)c(=O)n2Cc2ccc(Cl)cc2)cc1F [I-232],681
22,Cc1nc2ccc(Nc3nc(=O)c(C(=O)NN(C)C)cn3Cc3ccc(Cl)cc3)cc2s1 [I-310],132
23,CC(=O)OC(C)(C)C(=O)Nc1cnc(Nc2ccc(Oc3ccc(C)nc3)cc2)n(Cc2ccc(Cl)cc2)c1=O [I-293],14

row,Compound,IC50 [nM]
1,CC(C)Oc1ccc(Nc2ncc(NC(N)=O)c(=O)n2Cc2ccc(Cl)cc2)cc1F [I-277],49
2,"CCOC(=O)c1cn(Cc2ccccc2)c(=O)cc1Nc1ccc(OC(C)C)c(Cl)c1 [I-046, 4-(3-chloro-4-isopropoxyphenylamino)-1-benzyl-5-(ethoxycarbonyl)pyridine-2(1H)-one]",395
3,COC(=O)c1cccc(Oc2ccc(Nc3ncc(NC(=O)C4CCOCC4)c(=O)n3Cc3ccc(Cl)cc3)cc2)c1 [I-357],3
4,Cc1nc2ccc(Nc3nc(=O)c(C(=O)NC4COC4)cn3Cc3ccc(Cl)cc3)cc2s1 [I-308],133
5,Cc1nc2ccc(Nc3ncc(NC(=O)OC(C)(C)C)c(=O)n3Cc3ccc(Cl)cc3)cc2s1 [I-318],9
6,COc1cc(C(=O)Nc2cnc(Nc3ccc(OC(C)C)c(F)c3)n(Cc3ccc(Cl)cc3)c2=O)ccn1 [I-273],95
7,CCn1c(=O)cc(Nc2ccc(Oc3ccnc(C(=O)O)c3)cc2)n(Cc2ccc(Cl)cc2)c1=O [I-317],3
8,CC(C)Oc1ccc(Nc2ncc(NC(=O)C(C)C)c(=O)n2Cc2ccc(Cl)cc2)cc1F [I-247],19
9,Cc1nc2ccc(Nc3nc(C)c(Br)c(=O)n3Cc3ccc(Cl)cc3)cc2s1 [I-349],280
10,CC(=O)Nc1cnc(Nc2ccc(Oc3ccc(C)nc3)cc2)n(Cc2ccc(Cl)cc2)c1=O [I-291],43
11,CC(C)Oc1ccc(Nc2ncc(NC(=O)C3COC(C)(C)OC3)c(=O)n2Cc2ccc(Cl)cc2)cc1F [I-287],23
12,CC(C)Oc1ccc(NC2=CC(O)N(CC(=O)NC(CO)CO)C(=O)N2Cc2ccc(Cl)cc2)cc1F (centres unmarked) [I-111],11
13,CC(=O)N1CCC(NC(=O)c2cn(Cc3ccc(Cl)cc3)c(Nc3ccc4nc(C)sc4c3)nc2=O)CC1 [I-302],87
14,CC(C)Oc1ccc(Nc2ncc(C(=O)O)c(=O)n2Cc2ccc(Cl)cc2)cc1Cl [I-129],490
15,CC(C)Oc1ccc(Nc2ncc(C(=O)NN)c(=O)n2Cc2ccc(Cl)cc2)cc1F [I-272],104
16,CC(C)Oc1ccc(Nc2ncc(NS(C)(=O)=O)c(=O)n2Cc2ccc(Cl)cc2)cc1F [I-252],62
17,CCOC(=O)c1cn(Cc2ccc(Cl)cc2)c(Nc2ccc3nc(C)sc3c2)nc1=O [I-282],272
18,CC(C)Oc1ccc(Nc2ncc(N(C)C(=O)OC(C)(C)C)c(=O)n2Cc2ccc(Cl)cc2)cc1F [I-208],50
19,"CC(C)Oc1ccc(Nc2cc(=O)n(Cc3ccccc3)cc2C(O)c2ccc(Cl)cc2)cc1Cl (stereo not drawn) [I-068, 4-(3-chloro-4-isopropoxyphenylamino)-1-benzyl-5-(4-chloro-α-hydroxybenzyl)pyridine-2(1H)-one]",105
20,CC(C)Oc1ccc(Nc2cc(=O)n(Cc3ccc(Cl)cc3)c(=O)n2Cc2ccc(Cl)cc2)cc1Cl [I-005],238
21,CC(C)Oc1ccc(Nc2cc(=O)n(CC3COC(C)(C)OC3)c(=O)n2Cc2ccc(Cl)cc2)cc1Cl [I-094],5
22,CC(C)Oc1ccc(Nc2ncc(NCCCO)c(=O)n2Cc2ccc(Cl)cc2)cc1F [I-223],724
